Each structure is given as a SMILES string.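 1) Cells in 96-well plates. 2) Compound, 48 h, 5 concentrations. 3) Linear interpolation between surrounding doses. 4) Unreached endpoint = highest concentration. At the GI50, growth is halved. Definition used: TGI = concentration required for complete inhibition of growth.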

Some test systems named below: 786-0 renal; A549 NSCLC; HCT-15 colon; MCF7 breast; MDA-MB-435; OVCAR-3 ovarian; OVCAR-4 ovarian; SR leukemia; TK-10 renal; UO-31 renal.
Holding throughout (assay): inhibition of tumour cell growth, NCI panel, 48 h

For the compound `Cc1ccsc1C(NC(=O)c1ccccc1)c1cc(Cl)c2cccnc2c1O` (centres undefined), the GI50 with 786-0 renal was 1.19 µM; in the assay with A549 NSCLC it was 0.764 µM; in the assay with HCT-15 colon, 0.266 µM; with MCF7 breast it was 0.379 µM; in the assay with MDA-MB-435, 0.505 µM; with OVCAR-3 ovarian, 0.354 µM. The GI50 in the assay with OVCAR-4 ovarian is 0.479 µM; with SR leukemia, 0.398 µM; with TK-10 renal, 0.579 µM; in the assay with UO-31 renal, 0.334 µM. Besides, the TGI was 11.4 µM with 786-0 renal; 13.6 µM in the assay on A549 NSCLC; 16.6 µM in the assay with HCT-15 colon; 16.2 µM in the assay on MCF7 breast; 17.2 µM in the assay on MDA-MB-435; 12.1 µM in the assay with OVCAR-3 ovarian. Further, the TGI amounted to 12.8 µM in the assay with OVCAR-4 ovarian, 12.3 µM with SR leukemia, 12.6 µM in the assay with TK-10 renal and 2.51 µM with UO-31 renal.

As to `Cc1cc(N(CCC#N)S(=O)(=O)c2ccccc2)ccc1C=Nc1ccc(C(=O)O)cc1`, the TGI in the assay on 786-0 renal is 16.1 µM; with A549 NSCLC it was 52.5 µM; in the assay on HCT-15 colon, 13.7 µM; with MCF7 breast it was more than 100 µM; in the assay with MDA-MB-435 it was more than 100 µM; in the assay with OVCAR-3 ovarian it was 21.5 µM. Also, the TGI is 18.6 µM with OVCAR-4 ovarian, more than 40.9 µM in the assay with SR leukemia, 17.9 µM in the assay with TK-10 renal and 21.8 µM with UO-31 renal.

For the compound `COc1c(C(N)=O)cc(-c2ccc(Cl)cc2)cc1-c1ccc(S(N)(=O)=O)cc1`, the GI50 in the assay on 786-0 renal was 12.5 µM; in the assay on A549 NSCLC, 8.33 µM; with HCT-15 colon it was 9.66 µM; with MCF7 breast, 11.9 µM; with MDA-MB-435, 11.4 µM; in the assay on OVCAR-3 ovarian it was 9.79 µM. Further, the GI50 with OVCAR-4 ovarian was 10.6 µM; in the assay on SR leukemia, 6 µM; in the assay on TK-10 renal, 6.65 µM; in the assay on UO-31 renal, 9.95 µM. The TGI in the assay with 786-0 renal, in the assay on A549 NSCLC, in the assay with HCT-15 colon, in the assay with MCF7 breast, in the assay with MDA-MB-435 and in the assay on OVCAR-3 ovarian was more than 25 µM each time. The TGI is more than 25 µM in the assay with OVCAR-4 ovarian, 15.7 µM with SR leukemia, 18.8 µM in the assay on TK-10 renal and more than 23.5 µM with UO-31 renal.

As to `OC(c1cc(C(F)(F)F)nc2c(Cl)cc(Cl)cc12)C1CCCCN1` (centres undefined), the TGI is more than 38.1 µM in the assay on 786-0 renal; more than 52.2 µM with A549 NSCLC; 27.4 µM with HCT-15 colon; more than 25.8 µM in the assay with MCF7 breast; 18.4 µM with MDA-MB-435; 12.8 µM with OVCAR-3 ovarian. The TGI is 18.3 µM in the assay on OVCAR-4 ovarian, 5.32 µM with SR leukemia, more than 32.8 µM with TK-10 renal and 3.22 µM in the assay with UO-31 renal.

`CN(C(=O)C(C)(C)C)c1ccccc1I(=O)=O`: the GI50 was more than 100 µM with 786-0 renal; more than 100 µM in the assay with A549 NSCLC; 84.3 µM in the assay with HCT-15 colon; more than 100 µM in the assay with MCF7 breast; more than 100 µM with MDA-MB-435; more than 100 µM in the assay with OVCAR-3 ovarian. Also, the GI50 in the assay on OVCAR-4 ovarian is more than 100 µM; with SR leukemia, 3.15 µM; in the assay on TK-10 renal, more than 100 µM; with UO-31 renal it was more than 100 µM. Besides, the TGI with 786-0 renal, with A549 NSCLC, in the assay with HCT-15 colon, with MCF7 breast, in the assay on MDA-MB-435 and in the assay with OVCAR-3 ovarian was more than 100 µM each time. Also, the TGI was more than 100 µM with OVCAR-4 ovarian, 26.4 µM with SR leukemia, more than 100 µM in the assay with TK-10 renal and more than 100 µM in the assay with UO-31 renal.

Regarding `Cc1ccc(NC(=O)COc2ccc(Cl)cc2)cc1Cl`, the TGI in the assay with 786-0 renal, in the assay on A549 NSCLC, in the assay with HCT-15 colon, in the assay with MCF7 breast, with MDA-MB-435 and with OVCAR-3 ovarian was more than 100 µM each time. The TGI is more than 100 µM with OVCAR-4 ovarian, 69.7 µM in the assay with SR leukemia, more than 100 µM in the assay with TK-10 renal and more than 100 µM with UO-31 renal.

As to `O=C1OC(OC/C(Br)=C(\Br)COC2OC(=O)C(Cl)=C2Cl)C(Cl)=C1Cl` (centres undefined), the TGI was determined as 6.4 µM with 786-0 renal; 34.3 µM in the assay with A549 NSCLC; 10.1 µM in the assay with HCT-15 colon; 25.4 µM with MCF7 breast; 21.4 µM with MDA-MB-435; 14.5 µM in the assay with OVCAR-3 ovarian. Also, the TGI is 19.3 µM in the assay on OVCAR-4 ovarian, 2.16 µM in the assay on SR leukemia, 15.2 µM in the assay with TK-10 renal and 8.12 µM in the assay with UO-31 renal.

As to `NC1CC(=O)c2c(-c3cccs3)sc(-c3cccs3)c21` (centres undefined), the GI50 with 786-0 renal is 11.7 µM; in the assay with A549 NSCLC, 53.2 µM; with HCT-15 colon it was 3.04 µM; in the assay on MCF7 breast, 16.9 µM; with MDA-MB-435, 38.8 µM; with OVCAR-3 ovarian it was 26.1 µM. Besides, the GI50 with OVCAR-4 ovarian was 43 µM; with SR leukemia it was 7.03 µM; with TK-10 renal, 16.3 µM; in the assay with UO-31 renal, 24.7 µM. In addition, the TGI with 786-0 renal is more than 100 µM; in the assay with A549 NSCLC it was more than 100 µM; in the assay with HCT-15 colon, 22.4 µM; with MCF7 breast it was 44.4 µM; in the assay on MDA-MB-435 it was more than 100 µM; in the assay with OVCAR-3 ovarian it was 92.4 µM. Besides, the TGI with OVCAR-4 ovarian is more than 100 µM; with SR leukemia, more than 100 µM; in the assay on TK-10 renal, 40.3 µM; in the assay on UO-31 renal, more than 100 µM.

For the compound `COC(=O)Nc1nc2ccc(C(=O)c3cccc(I)c3)cc2[nH]1`, the GI50 in the assay on 786-0 renal was 0.0848 µM; in the assay with A549 NSCLC, 0.0699 µM; in the assay on HCT-15 colon, 0.0459 µM; with MCF7 breast, 0.0369 µM; in the assay with MDA-MB-435, 0.0211 µM; in the assay with OVCAR-3 ovarian it was 0.0332 µM. The GI50 was 0.818 µM in the assay with OVCAR-4 ovarian, 0.0314 µM in the assay on SR leukemia, 6.37 µM in the assay with TK-10 renal and 0.316 µM in the assay on UO-31 renal. Also, the TGI in the assay with 786-0 renal was 6.15 µM; in the assay with A549 NSCLC, 15 µM; in the assay with HCT-15 colon, 13.2 µM; in the assay with MCF7 breast, 15.9 µM; in the assay on MDA-MB-435 it was 0.051 µM; in the assay on OVCAR-3 ovarian, 0.207 µM. Moreover, the TGI in the assay on OVCAR-4 ovarian is 15.3 µM; in the assay with TK-10 renal, 32.7 µM; with UO-31 renal, 17.2 µM.

The record behind these values is PubChem BioAssay (NCI).
